Test results: patent EP2108954A1, “A test system for detecting intracellular cyclic nucleotide level and methods and uses thereof” (Max-Planck-Gesellschaft zur Förderung der Wissenschaften …, priority 2008, dated 2009)
“Also recorded” adds a separate entry of the source.

Tests used:
Or22a = biological target: T1, Or22a (Drosophila melanogaster, UniProt P81909); experiment: Whole-cell patch-clamp of HEK293 cells expressing Or22a alone; type: cell-based; conditions: HEK293 cells transfected with Or22a alone, -60 mV, n = 6
T1 construct: expressed in transfected cells; host or cells: HEK293
T1 sequence (P81909 1-397): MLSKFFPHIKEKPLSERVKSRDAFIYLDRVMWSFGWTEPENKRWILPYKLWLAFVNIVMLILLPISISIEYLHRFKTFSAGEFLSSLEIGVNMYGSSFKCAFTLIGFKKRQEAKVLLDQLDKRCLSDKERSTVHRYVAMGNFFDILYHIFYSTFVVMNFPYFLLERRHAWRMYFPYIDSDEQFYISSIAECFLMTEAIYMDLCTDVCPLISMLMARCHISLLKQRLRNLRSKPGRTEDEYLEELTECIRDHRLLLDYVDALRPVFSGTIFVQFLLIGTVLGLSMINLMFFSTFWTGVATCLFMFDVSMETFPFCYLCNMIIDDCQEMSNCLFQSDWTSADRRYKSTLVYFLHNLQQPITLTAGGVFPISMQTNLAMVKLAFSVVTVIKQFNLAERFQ
Experimental: (§1) HEK293 cells were cultured as described by Wicher and colleagues (Wicher et al., J. Biol. Chem. 281, 3227-36 (2006)). In brief, HEK293 cells were cultured at a density of ∼2*10^4 per 35-mm dish and transfected with 1 µg pcDNA3-DOR22a-GFP and 1 µg pcDNA3-DOR83b-GFP (Neuhaus, et al., Nat. Neurosci. 8, 15-17 (2005); DNAs were a generous gift of Dr. E. Neuhaus and Dr. H. Hatt) using Roti-Fect transfection kit (Roth, Karlsruhe, Germany). In some experiments we transfected cells with pcDNA3-DOR22a-GFP or pcDNA3-DOR83b-GFP alone. We also examined the properties of DOR47a, which was cloned, using standard molecular biology methods into a pcDNA3.1(-) expression vector. To test for putative G-protein coupling, cells were transfected with the respective OR-DNA together with 1.5 µg hHCN2/pcDNA3 (provided by M. Biel, Munich, Germany), with 1 µg hKCNQ4/pcDNA3.1 or with 1 µg hCNGA2/pCMV6-XL4 (Origene, Rockville, MD, USA).
(§2) Ion currents in HEK293 cells were measured with the patch-clamp technology as described (Wicher et al, J. Biol. Chem. 281, 3227-36 (2006)). In brief, ion currents in HEK293 cells were measured at room temperature using whole-cell patch-clamp with appropriate compensation of series resistance and of capacitive currents. Additional experiments were performed in the outside-out configuration. […]

Or22a and Or83b [1] = biological target: T2, Or22a and Or83b (Drosophila melanogaster, UniProt P81909+Q9VNB5); experiment: Radioreceptor assay of cAMP content of HEK293 cells expressing Or22a and Or83b; type: cell-based; conditions: 100 nM Etb for 15 min; n = 3 experiments; control 1.28 ± 0.06
T2 construct: expressed in transfected cells; host or cells: HEK293
T2 sequence (P81909 1-397): T1 sequence (P81909 1-397)
T2 sequence (Q9VNB5 1-486): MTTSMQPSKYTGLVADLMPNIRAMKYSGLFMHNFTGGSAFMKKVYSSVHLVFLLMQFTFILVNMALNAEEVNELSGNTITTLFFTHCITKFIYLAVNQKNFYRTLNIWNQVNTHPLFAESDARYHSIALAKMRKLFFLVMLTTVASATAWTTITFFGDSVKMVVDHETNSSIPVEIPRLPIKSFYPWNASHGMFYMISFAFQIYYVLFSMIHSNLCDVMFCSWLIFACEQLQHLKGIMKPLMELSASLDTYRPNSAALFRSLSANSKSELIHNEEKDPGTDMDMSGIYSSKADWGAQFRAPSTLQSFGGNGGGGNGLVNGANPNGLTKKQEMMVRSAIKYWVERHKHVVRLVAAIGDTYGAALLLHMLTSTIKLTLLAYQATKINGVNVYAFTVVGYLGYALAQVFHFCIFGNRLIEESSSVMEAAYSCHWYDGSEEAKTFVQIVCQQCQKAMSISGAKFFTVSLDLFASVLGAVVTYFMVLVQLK
Experimental: Monolayers of HEK293 cells were incubated for 30 min in HEPES Ringer's buffer containing 1 mM isobutylmethylxanthine and stimulated with 100 nM Etb for 15 min. The reaction was stopped with 96% ethanol, and after evaporation, 50 mM Tris/4 mM EDTA (pH 7.5) was added.

Or22a and Or83b [2] = biological target: T2, Or22a and Or83b; experiment: Whole-cell patch-clamp of currents in HEK293 cells coexpressing Or22a and Or83b; type: cell-based; conditions: 500 µM GDP-β-S in the pipette; n = 11
hKCNQ4 = experiment: Gq coupling test: KCNQ4 current in HEK293 cells coexpressing Or22a, Or83b and hKCNQ4; type: cell-based, human; conditions: increasing Etb concentrations; +40 mV
Experimental: as §1, §2

With `CCCC(=O)OCC` [Etb, ethyl butyrate] the “inward current upon short Etb application” value (Or22a) was “no current was observed”, the cAMP level (Or22a and Or83b [1]) was 1.65 ± 0.10 pmol/mg protein and the “Hill coefficient of Etb-induced currents” value (Or22a and Or83b [2]) was 1.1. The “effect on KCNQ4 current” value (hKCNQ4) was “remains unaffected; also recorded: had no effect”.
